Patent publication US6077872A (priority 1998, dated 2000)
Like-named read-outs stand apart in the source and are kept apart here.

Key:
in vivo = conditions: rat; for AUC / Cmax / Tmax / half-life: in vivo, po, 200 mg/kg; for enhancement of serum Ca level: 200 mg calcium/kg oral
Source text: (2) apparatus: Model WFX-1B Spectrophotometer of Atomic Absorption was produced by The Second Optical Apparatus Factory of Beijing, 83114; P-E 3030 Spectrophotometer of Atomic Absorption was produced by Perkin-Elmer Corp.,USA;DT-100 Single-Pan Balance (1/10^4) was produced by Beijing Optical Apparatus Factory; TJ-6 Centrifuge was produced by Beckman, USA; Model MVS-1 Vortex Mixer was produced by Beijing Beide Scientific Apparatus and Materials Co. Ltd.
Twelve hours after the animals had been fasted, 0.5 mL plasma was sampled by excising eyeballs. The plasma was established as the blank group. Then rats were administered agents once in an amount of 20 mL/kg body weight by pouring into the stomach. 0.5 mL plasma was sampled by taking from eyeballs 0.25,0.5,1,1.5,2,3,4,6,8,12 and 16 hours later after the administration. […] The concentration of calcium was measured by a Model WFX-1B Spectrophotometer of Atomic Absorption.

preschool children = conditions: for bone mineral density: before test 0.379 (threonate), 0.369 (carbonate)
Procedure: Seventy 3-6 years old healthy children whose bone mineral density were medium-lower at a central kindergarten in the suburban county of Beijing were selected as subjects, wherein there are 13 boys and 57 girls. All were healthy children who didn't have any metabolic diseases, liver or kidney diseases, bone wounds and abnormal diseases.
Double blind method was employed during the observation. Every person was administered calcium preparation or placebo twice a day in a dosage of 1 bag each time. […] Group IV, established as blank-control group, was administered placebo which didn't contain calcium. All the above oral preparations were provided by Beijing Juneng Asian-Pacific Life Science Research Center.
(1) Bone mineral density was measured before the test and 1.5 months and 3 months later after the administration of Ca supplements.
The bone mineral density of radius in non-preferred hand was measured at the 1/3 point near the farther-end by a Model BMD400 Single-Photon absorptiometry produced conjointly by Institute of Atomic Energy, Ministry of Nuclear Industry, China and Institute of Broadcasting, Beijing, to obtain mean mineral bone density (BMD, g/cm^2). Each point was scanned twice with a scanning speed of 0.5 mm/sec.
All data was analyzed with a SAS statistical software package.

rickets-babies [1] = conditions: for craniomalacia, babies with symptom after the beginning of test: before test 3 (threonate), 4 (carbonate); for pillow-bald, babies with symptom after the beginning of test: before test 9 (threonate), 9 (carbonate); for night-sweat, babies with symptom after the beginning of test: before test 12 (threonate), 13 (carbonate)
Procedure: Fourty rickets-babies at the age of 3-10 months were randomly divided into 2 groups of 20 babies each. […] Test group II, namely the calcium carbonate group, were administered orally calcium carbonate twice a day in a dosage of one bag each time. Each bag of the two kind of calcium preparations contained the same amount of element calcium, namely 150 mg element calcium.
(1) Clinic symptoms mainly included the normal symptoms of rickets-babies such as night-sweat, pillow-bald, craniomalacia, etc.

rickets-babies [2] = system: rickets-babies
Procedure: Fourty rickets-babies at the age of 3-10 months were randomly divided into 2 groups of 20 babies each. […] Test group II, namely the calcium carbonate group, were administered orally calcium carbonate twice a day in a dosage of one bag each time.
(2) Biochemical examinations of blood. Venous blood of rickets-baby was sampled before and after the beginning of test and serum Ca, P and AKP level were measured and the product of [Ca]×[P] was calculated.
(3) Data processing: All data was statistically analyzed using the method of direct calculation of probability, grouping t-test and pairing t-test.
Considering the difficulty in sampling blood from rickets-babies during the test operation, blood sampling was not performed at the second week after the beginning of the test. Blood sampling was only performed before the test and at the fourth week after the beginning of the test.

osteoporosis = conditions: oral administration; Recker et al 1977; cited from earlier work
rickets-mice [3] = test: Preventing rickets in younger mice: serum Ca, AKP, P; format: in vivo, mice of Kunming species; conditions: 300 mg calcium element, 60 days
Procedure: (§1) The mice were bred for 60 days under conditions of avoiding light around-the-clock, at a temperature of 20-25° C. and a relative humility of 40-60% while the normal-control group mice were fed ordinary diet and water and were placed in non-dark room.
(§2) The low-calcium diet used in this test was the same as that in Test II but VD in the vitamin mixture was replaced by glucose.
(§3) Some weanling mice were placed in dark room and fed VD -deficient low-calcium diet and drunk de-ionized water for 60 days, thus a ricket model of baby mice was prepared. While other weanling mice were placed in non-dark room and fed ordinary diet and drunk tap water for 60 days, these mice were established as normal-control group.

rickets-mice [4] = test: Preventing rickets in younger mice: body weight, dry weight, ash weight and total calcium content of femur; format: in vivo, mice of Kunming species; conditions: 300 mg calcium element
Procedure: as §1, §2, §3

rickets-mice [5] = test: Preventing rickets in younger mice: tibia strength (three-point bending); format: in vivo, mice of Kunming species
Procedure: as §1, §2, §3

[6] = 2 bags/day of 150 mg element calcium, 1.5 months
[7] = after four weeks of Ca-supplementing

Q: For `CC(=O)O` [calcium acetate], which AUC (in vivo) is on record?
A: Its AUC is 28200 ng·h/mL.

Q: And the Cmax (in vivo)?
A: The Cmax was 24900 ng/mL.

Q: What about the Tmax (in vivo) of the same molecule?
A: Its Tmax is 36.6 min.

Q: What does the source list for `O=C(O)O` [calcium carbonate]?
A: enhancement of serum Ca level (in vivo; 0.25 hrs): 11.1 µg/mL; enhancement of serum Ca level (in vivo; 0.5 hrs): 24.7 µg/mL; enhancement of serum Ca level (in vivo; 1 hrs): 21.4 µg/mL; enhancement of serum Ca level (in vivo; 1.5 hrs): 17.1 µg/mL; enhancement of serum Ca level (in vivo; 2 hrs): 13.2 µg/mL; enhancement of serum Ca level (in vivo; 3 hrs): 10.9 µg/mL; enhancement of serum Ca level (in vivo; 4 hrs): 5.7 µg/mL; enhancement of serum Ca level (in vivo; 6 hrs): 0.2 µg/mL; enhancement of serum Ca level (in vivo; 8 hrs): -1.4 µg/mL; AUC (in vivo): 40400 ng·h/mL; Cmax (in vivo): 31100 ng/mL; Tmax (in vivo): 39.6 min; half-life (in vivo): 20.4 min; bone mineral density (preschool children; 2 bags/day of 150 mg element calcium, 1.5 month): 0.385 ± 0.028 g/cm^2; extent of BMDs' increase (preschool children; [6]): 4.37%; percentage of children whose BMDs reached the normal range (preschool children; [6]): 0%; bone mineral density (preschool children; 2 bags/day of 150 mg element calcium, 3 month): 0.412 ± 0.020 g/cm^2; extent of BMDs' increase (preschool children; 2 bags/day of 150 mg element calcium, 3 months): 11.65%; BMD comparison between groups (in words) (preschool children; in vivo): markedly higher than those of the blank-control group only in 3 months; total symptom improvement (rickets-babies [1]; four weeks): 57.6%; craniomalacia, babies with symptom after the beginning of test (rickets-babies [1]; four weeks): 3; pillow-bald, babies with symptom after the beginning of test (rickets-babies [1]; four weeks): 5; night-sweat, babies with symptom after the beginning of test (rickets-babies [1]; four weeks): 3; total symptom improvement (rickets-babies [1]; two weeks): 11.5%; rickets-babies free of symptoms (rickets-babies [1]; two weeks of administration (concluding text)): 50%; craniomalacia, babies with symptom after the beginning of test (rickets-babies [1]; two weeks): 4; pillow-bald, babies with symptom after the beginning of test (rickets-babies [1]; two weeks): 9; night-sweat, babies with symptom after the beginning of test (rickets-babies [1]; two weeks): 10; percentage of babies whose AKP reached the normal range (rickets-babies [2]; [7]): 30%; percentage of babies whose [Ca] × [P] reached the normal range (rickets-babies [2]; [7]): 70%; percentage of babies whose serum P reached the normal range (rickets-babies [2]; [7]): 60%; serum Ca change (in words) (rickets-babies [2]; before and after the test, P>0.05): no significant variation; serum P (rickets-babies [2]; four weeks after, before 3.19 ± 0.25 (threonate), 3.12 ± 0.20 (carbonate)): 3.90 ± 0.52; serum Ca (rickets-babies [2]; four weeks after, before 10.49 ± 0.39 (threonate), 10.51 ± 0.47 (carbonate)): 10.55 ± 0.42; [Ca] × [P] (rickets-babies [2]; four weeks after, before 33.4 ± 2.47 (threonate), 33.83 ± 2.17 (carbonate)): 43.19 ± 5.22; AKP (rickets-babies [2]; four weeks after, before 235.95 ± 7.89 (threonate), 235.25 ± 7.37 (carbonate)): 225.25 ± 22.93; effectiveness for preventing osteoporosis (osteoporosis): not effective for preventing osteoporosis

Q: Which AUC (in vivo) does the source give for `O=C(O)[C@H](O)[C@@H](O)[C@H](O)[C@H](O)CO` [calcium gluconate, reference compound] here?
A: The AUC was 138000 ng·h/mL.

Q: And the Cmax (in vivo)?
A: The Cmax was 32100 ng/mL.

Q: What about the Tmax (in vivo) of the same molecule?
A: The Tmax was 26.4 min.

Q: And the half-life (in vivo)?
A: Its half-life is 160 min.

Q: And the “serum Ca” value (rickets-mice [3]; model 1.55 ± 0.42)?
A: Its value is 2.37 ± 0.97 mmol/L.

Q: What about the “serum P” value (rickets-mice [3]; model 2.23 ± 0.52) of the same molecule?
A: The value was 1.71 ± 0.45 mmol/L.

Q: What about the “serum AKP (in Bessey-Loury unit)” value (rickets-mice [3]; model 101 ± 34) of the same molecule?
A: Its value is 46.6 ± 13 U/L.

Q: And the “dry weight of femur” value (rickets-mice [4]; model 0.099 ± 0.014)?
A: The value was 0.122 ± 0.019 g.

Q: And the total calcium content (rickets-mice [4]; model 24.81 ± 4.36)?
A: The total calcium content was 30.23 ± 5.23 mg.

Q: What about the ash weight (rickets-mice [4]; model 46.62 ± 9.38) of the same molecule?
A: Its ash weight is 70.76 ± 10.18 mg.

Q: What about the “breaking force (tibia)” value (rickets-mice [5]; 300 mg calcium element, model 1.12 ± 0.37) of the same molecule?
A: The value was 1.54 ± 0.35 kg.

Q: And the “breaking force of tibia (in words)” value (rickets-mice [5]; mouse, in vivo)?
A: The value was “significantly higher than those for the model group and were comparable with those for the normal-control group”.
